The source of these data is paper PMC9267128, “New 2-[(4-Amino-6-N-substituted-1,3,5-triazin-2-yl)methylthio]-N-(imidazolidin-2-ylidene)-4-chloro-5-methylbenzenesulfonamide Derivatives, Design, Synthesis and Anticancer Evaluation” (International Journal of Molecular Sciences, 2022).

Experiment [1] concerns MCF7 (breast cancer cell line, ATCC, HTB-22). The experiment in a line: MTT assay, wild-type p53 breast cancer cells MCF-7 (Table 11). The format is cell-based, human. The note with it: Homo sapiens, MCF7; 72 h of incubation, wild-type p53, second determination. The protocol: (§1) Thus, the ability of the selected compounds to exert cytotoxic activity toward cell lines harboring mutant p53 was examined. Compounds displaying a high selectivity index (Table 6) were selected for the analysis of their activity toward ovarian and breast cancer cells with wild-type p53 (A2780, MCF-7) and mutant p53 (SKOV-3, T47D).
(§2) Cell viability was examined using the MTT [3-(4,5-dimethylthiazol-2-yl)-2,5-diphenyltetrazolium bromide] assay. Cells were seeded in 96-well plates at a density of 3 × 10^3 cells/well and treated for 72 h with the tested compounds in the concentration range of 1–100 µM. Then, MTT (0.5 mg/mL) was added to the medium and cells were further incubated for 2 h at 37 °C. In the next stage, cells were lysed with DMSO and the absorbance of the formazan solution was measured at 550 nm with a plate reader (1420 multilabel counter, Victor, Jügesheim, Germany). The experiment was performed in triplicate. Values are expressed as the mean ± SD of at least three independent experiments. Cisplatin was used as a positive control.
(§3) Compounds 48, 62, 134, 138 and 140 were further examined toward MCF7 (breast cancer cell line, ATCC, HTB-22), T47D (breast cancer cell line, DSMZ ACC 739), A2780 (ovarian carcinoma cell line, ECACC, 93112519), and SKOV3 (ovarian carcinoma cell line, ATCC, HTB-77) cells. Cells were grown in Dulbecco’s Modified Eagle Medium (DMEM) supplemented with 10% fetal bovine serum (Thermo Fisher Scientific).

Another experiment relates to MCF-7 (breast cancer). Description: MTT cell viability assay, MCF-7. The note with it: for IC50: Homo sapiens, MCF7, 72 h, MTT assay, 72 h of incubation; for Selectivity Index (SI) MCF-7: IC50 value toward HaCaT cells/IC50 value toward MCF-7. The format is cell-based, human. The essentials: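 Cells in DMEM with 10% FBS, 3 × 10^3 per well, exposed to compounds at 1–100 µM for 72 h at 37 °C. MTT at 0.5 mg/mL for 2 h, formazan dissolved in DMSO and read at 550 nm. Mean ± SD of at least three independent experiments, each in triplicate.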

A further experiment has as its system T47D cells. Description: Apoptosis analysis (Annexin V-PE/7-AAD flow cytometry) in T47D cells. It counts as cell-based. As to conditions: T47D (mutant p53), 5, 10 and 25 µM, 72 h. The protocol:
Since the examined compounds exerted cytotoxic activity toward cell lines harboring mutant p53, the ability of compounds 140 and 48 to induce apoptosis in T47D cells with mutant p53 was examined. […] Cell death was induced to a similar extent in cells harboring wild-type and mutant p53 (Figure 10).
Levels of apoptosis were measured by flow cytometry using the Annexin V-PE Apoptosis Detection Kit I (BD Biosciences, Belgium) according to the manufacturer’s instructions. Apoptosis was assessed after a 72 h treatment of MCF7 and T47D cells with compounds 48 and 140 in the concentrations of 5, 10 and 25 µM. Proceeding cell treatment, cells were collected, washed with PBS and stained with Annexin V-phycoerythrin (PE) and 7-amino-actinomycin (7-AAD) in Annexin V binding buffer for 15 min at RT in the dark. After staining, cells were diluted in Annexin V binding buffer and analyzed on a BD FACSCalibur flow cytometer (BD Biosciences). At total of 10^4 cells were analyzed from each sample and data were analyzed with Flowing software (version 2.5).

Experiment [2] concerns SKOV3 (ovarian carcinoma cell line). Description: MTT assay, mutant p53 ovarian cancer cells SKOV-3. It counts as cell-based. The note with it: Homo sapiens, SK-OV-3, 72 h of incubation. The protocol: as §1, §2, §3
In experiment [3] the test system is T47D (breast cancer cell line). Description: MTT assay, mutant p53 breast cancer cells T47D. The format is cell-based. As to conditions: Homo sapiens, T47D, 72 h of incubation. The protocol: as §1, §2, §3
A further experiment deals with HeLa (cervical cancer). The experiment in a line: MTT cell viability assay, HeLa. The note with it: for IC50: Homo sapiens, HeLa, MTT assay, 72 h of incubation; for Selectivity Index (SI) HeLa: IC50 value toward HaCaT cells/IC50 value toward HeLa. It counts as cell-based, human. The gist of the method: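 HCT-116 and HeLa cells in DMEM/10% FBS exposed 72 h to compounds over 1–100 µM. Viability by MTT (0.5 mg/mL, 2 h, 37 °C), formazan dissolved in DMSO and read at 550 nm; mean ± SD of at least three independent experiments.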

The subject of a further experiment is MDM2-p53 interactions. The experiment in a line: Western blot of MDM2 and p53 protein levels in MCF-7 cells. The note with it: 4 µM and 10 µM, 24-h incubation. It counts as cell-based, human. The method, then:
Thus, the effects of the examined compounds on the inhibition of MDM2-p53 interactions were examined. MDM2 and p53 protein levels were determined with Western blot analysis after the treatment of MCF-7 cells with compounds selected for their high selectivity index (48, 62, 134, 138, and 140). Compounds were examined at different concentrations (4 µM and 10 µM) following a 24-h incubation (Figure 7).
Proteins were transferred to an Immobilon-P PVDF membrane (Merck Millipore, Burlington, MA, USA). The membranes were incubated for 1 h using 5% low-fat milk solution in 1× TBS (50 mM Tris-Cl, pH 7.5, 150 mM NaCl) as a blocking buffer and then overnight at 4 °C in the same blocking solution containing one of the following antibodies: anti-MDM2 (rabbit, Sigma-Aldrich AB-166, Burlington, MA, USA), anti-p53 (rabbit, Sigma-Aldrich S15) or α-tubulin (rabbit, 11H10, Cell Signaling, Danvers, MA, USA). After washing (3 × 10 min in TBS), membranes were incubated for 2 h in room temperature with the adequate HRP-conjugated secondary antibody: goat anti-rabbit IgG (1:5000, Abcam, Cambridge, UK; cat. 97051). Membranes were developed using an HRP detection kit WesternBright Quantum (Advansta, San Jose, CA, USA; cat. K-12042).

As for `Cc1cc(S(=O)(=O)N=C2NCCN2Cc2ccccc2)c(SCc2nc(N)nc(N3CCc4ccccc43)n2)cc1Cl` [Compound 48], the IC50 was determined as 7.8 ± 0.1 µM in experiment [1]; 7 ± 0.2 µM in the experiment on MCF-7 (breast cancer); 8.1 ± 0.1 µM in experiment [2]; 4.8 ± 0.1 µM in experiment [3]; 25 ± 0.3 µM in the experiment on HeLa (cervical cancer). In the experiment on MCF-7 (breast cancer), the “Selectivity Index (SI) MCF-7” value is on record as 4.7. Also, the “apoptotic cells (Annexin V-PE)” value with T47D cells is given as “concentration-dependent increase”. For the same compound, the “Selectivity Index (SI) HeLa” value in the experiment with HeLa (cervical cancer) stood at 1.3. Also, the “MDM2 and p53 protein levels” value in the experiment on MDM2-p53 interactions is “no changes”.
`Cc1cc(S(=O)(=O)N=C2NCCN2Cc2ccc(C(F)(F)F)cc2)c(SCc2nc(N)nc(N3CCN(Cc4ccccc4)CC3)n2)cc1Cl` [Compound 140]: the IC50 in experiment [1] turned out to be 6.9 ± 0.1 µM; with MCF-7 (breast cancer), 10 ± 0.2 µM; in experiment [2] it was 6.6 ± 0.1 µM; in experiment [3], 5.3 ± 0.1 µM; with HeLa (cervical cancer), 8 ± 0.5 µM. Besides, the “Selectivity Index (SI) MCF-7” value in the experiment on MCF-7 (breast cancer) is listed as 2.2. In addition, the “apoptotic cells (Annexin V-PE)” value in the experiment with T47D cells is “concentration-dependent increase”. Also, the “Selectivity Index (SI) HeLa” value with HeLa (cervical cancer) is given as 2.7. Also, in the experiment with MDM2-p53 interactions, the “MDM2 and p53 protein levels” value is “no changes”.
